Test results taken from patent publication US20240158446A1, “CYCLIC COMPOUND HAVING SELECTIVE INHIBITORY ACTION ON KRAS OVER HRAS AND NRAS” (CHUGAI SEIYAKU KABUSHIKI KAISHA, priority 2021, published 2024).
Read-outs that look alike come from different tables or passages of the source. Where a SMILES comes first, the peptide text is derived from it. Bridges are numbered along the chain shown (N, C = ends). [ ]: non-standard residue; d: D form. The star is where a group is joined. hPhe(3-Cl-4-CF3) = N[C@@H](CCc1ccc(C(F)(F)F)c(Cl)c1)C(=O)O; NPrPhe(4-CF3) = CCCN[C@@H](Cc1ccc(C(F)(F)F)cc1)C(=O)O; NMeGly(cPent) = CN[C@H](C(=O)O)C1CCCC1; NMeD = CN[C@@H](CC(=O)O)C(=O)O; NMeL = CN[C@@H](CC(C)C)C(=O)O; Morpholide = C1CN(*)CCO1; Ac4c = NC1(C(=O)O)CCC1; NEtG = CCNCC(=O)O; Sar = CNCC(=O)O

Legend:
[1] = target: GDP-bound HRAS wild-type protein (Homo sapiens, UniProt P01112); assay: Binding to HRAS by surface plasmon resonance (SPR), Single Cycle Kinetics; details: for HRAS/KRAS (KD ratio): ratio of KD for GDP-bound HRAS wild-type protein to KD for KRAS; for HRAS/KRAS (KD ratio) / HRAS/KRAS (ratio of KD value for HRAS to KD value for KRAS): SPR; for HRAS/KRAS (ratio of KD value for HRAS to KD value for KRAS): GDP-bound HRAS wild-type protein vs GDP-bound KRAS wild-type protein, KD ratio class
[2] = target: GDP-bound NRAS wild-type protein (Homo sapiens, UniProt P01111); assay: Binding to NRAS by surface plasmon resonance (SPR), Single Cycle Kinetics; details: for NRAS/KRAS (KD ratio): ratio of KD for GDP-bound NRAS wild-type protein to KD for KRAS; for NRAS/KRAS (KD ratio) / NRAS/KRAS (ratio of KD value for NRAS to KD value for KRAS): SPR; for NRAS/KRAS (ratio of KD value for NRAS to KD value for KRAS): GDP-bound NRAS wild-type protein vs GDP-bound KRAS wild-type protein, KD ratio class
[3] = test system: human lung cancer strain NCI-H441;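 also: cell proliferation inhibition after four days measured by CellTiter-Glo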
[4] = target: GDP-bound KRAS wild-type protein (Homo sapiens, UniProt P01116); assay: Binding to KRAS by surface plasmon resonance (SPR), Single Cycle Kinetics; details: GDP-bound KRAS wild-type protein, read-out: KRAS KD
[5] = read-out: NCI-H441 IC50, NCI-H441 cell proliferation, 4 days, CellTiter-Glo
[6] = SPR, Single Cycle Kinetics, 1:1 binding model

GDP-bound NRAS wild-type protein, sequence (P01111 whole entry): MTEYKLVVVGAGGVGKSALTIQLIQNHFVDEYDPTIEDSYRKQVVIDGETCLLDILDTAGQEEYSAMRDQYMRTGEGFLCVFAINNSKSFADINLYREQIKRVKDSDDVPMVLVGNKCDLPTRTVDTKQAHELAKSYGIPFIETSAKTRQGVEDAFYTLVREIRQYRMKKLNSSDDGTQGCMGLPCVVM
GDP-bound HRAS wild-type protein, sequence (P01112 whole entry): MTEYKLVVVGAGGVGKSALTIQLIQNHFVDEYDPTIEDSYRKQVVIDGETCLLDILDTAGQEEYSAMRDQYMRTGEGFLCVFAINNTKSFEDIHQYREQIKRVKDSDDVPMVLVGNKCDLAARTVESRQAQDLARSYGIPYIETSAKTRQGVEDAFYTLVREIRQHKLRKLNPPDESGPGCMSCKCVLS
GDP-bound KRAS wild-type protein, sequence (P01116 whole entry): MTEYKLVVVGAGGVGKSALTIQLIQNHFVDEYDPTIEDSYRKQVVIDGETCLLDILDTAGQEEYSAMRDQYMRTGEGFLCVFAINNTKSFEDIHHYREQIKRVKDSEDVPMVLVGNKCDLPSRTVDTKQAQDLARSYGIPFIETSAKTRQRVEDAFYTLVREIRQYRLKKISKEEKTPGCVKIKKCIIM

Row | IC50 [3, 5] [nM] | Kd ([4]; SPR, Single Cycle Kinetics) [nM] | IC50 [3] [nM] | Kd ([4]; SPR Single Cycle Kinetics, 1:1 binding model) [nM] | Kd [4, 6] [nM] | SMILES | HRAS/KRAS (KD ratio) [1] | NRAS/KRAS (KD ratio) [2] | HRAS/KRAS (ratio of KD value with respect to GDP-bound HRAS wild-type protein to KD value with respect to KRAS) ([1]; SPR KD ratio HRAS/KRAS, class symbols) | NRAS/KRAS (ratio of KD value with respect to GDP-bound NRAS wild-type protein to KD value with respect to KRAS) ([2]; SPR KD ratio NRAS/KRAS, class symbols) | HRAS/KRAS (ratio of KD value for HRAS to KD value for KRAS) [1] | NRAS/KRAS (ratio of KD value for NRAS to KD value for KRAS) [2]
1 | 3.6 | 0.053 |  |  |  | CCCC[C@H]1C(=O)N[C@@H]([C@@H](C)CC)C(=O)N(C)CC(=O)N(C)[C@H]2C/C=C\CCN(C2=O)[C@@H](Cc2ccc(C(F)(F)F)cc2)C(=O)N(C)CC(=O)N[C@@H](CCc2cc(F)c(C(F)(F)F)c(F)c2)C(=O)N2C[C@H](OCC)C[C@H]2C(=O)NC2(CC(F)(F)C2)C(=O)N(C)[C@@H](C2CCCC2)C(=O)N(C)[C@H](C(=O)N(C)C)CC(=O)N1C [PP1740] | A (a compound having 10 or more and less than 20 is denoted as A) | A (a compound having 10 or more and less than 20 is denoted as A) |  |  |  | 
2 | 16.2 | 0.41 |  |  |  | CCCN1C(=O)CN(CC)C(=O)CN(C)C(=O)[C@H]([C@@H](C)CC)NC(=O)[C@H](CC(C)C)N(C)C(=O)C[C@@H](C(=O)N2CCOCC2)N(C)C(=O)[C@H](C2CCCC2)N(C)C(=O)C2(CCC2)NC(=O)[C@@H]2CCCN2C(=O)[C@H](CCc2ccc(C(F)(F)F)c(Cl)c2)NC(=O)CN(C)C(=O)[C@@H]1Cc1ccc(C(F)(F)F)cc1 [PP1948] ([NMeL]I[Sar][NEtG][NPrPhe(4-CF3)][Sar][hPhe(3-Cl-4-CF3)]P[Ac4c][NMeGly(cPent)][NMeD]-Morpholide; lactam N-11) | C (A compound having a KD ratio of 0.1 or more and less than 3 is denoted as C) | C (A compound having a KD ratio of 0.1 or more and less than 3 is denoted as C) |  |  |  | 
3 |  |  | 64 | 0.77 |  | CCC[C@H]1C(=O)N[C@@H]([C@@H](C)CC)C(=O)N(C2CC2)CC(=O)N(C)[C@H]2C/C=C\CCN(C2=O)[C@@H](Cc2ccc(C(F)F)cc2)C(=O)N(C)CC(=O)N[C@@H](CCc2cc(F)c(C(F)(F)F)c(F)c2)C(=O)N2C[C@H](OC(C)C)C[C@H]2C(=O)NC2(CC(C)(C)C2)C(=O)N(C)[C@@H](C(CC)CC)C(=O)N(C)[C@H](C(=O)N(C)C)CC(=O)N1C [PP2529] |  |  | A (a compound having 10 or more and less than 20 is denoted as A) | AA (a compound having 20 or more is denoted as AA) |  | 
4 |  |  | 398 |  | 3.8 | CCO[C@@H]1C[C@H]2C(=O)NC3(CCC3)C(=O)N(C)[C@@H](C3CCCC3)C(=O)N(C)[C@@H](C(=O)N(C)C)CC(=O)N(C)[C@@H](CC)C(=O)N[C@@H]([C@@H](C)CC)C(=O)N(C)CC(=O)N(C)[C@H]3C/C=C\CCN(C3=O)[C@@H](Cc3ccc(C(F)(F)F)cc3)C(=O)N(C)CC(=O)N[C@@H](CCc3cc(F)c(C(F)(F)F)c(F)c3)C(=O)N2C1 [PP1234] |  |  |  |  | C (A compound having a KD ratio of 0.1 or more and less than 3 is denoted as C) | B (a compound having 3 or more and less than 10 is denoted as B)
5 |  |  | 23.1 |  | 0.087 | CCO[C@@H]1C[C@H]2C(=O)NC3(CCC3)C(=O)N(C)[C@@H](C3CCCC3)C(=O)N(C)[C@H](C(=O)N3CCCC3)CC(=O)N(C)[C@@H](C)C(=O)N[C@@H]([C@@H](C)CC)C(=O)N(C)CC(=O)N(C)[C@H]3C/C=C\CCN(C3=O)[C@@H](Cc3ccc(C(F)(F)F)cc3)C(=O)N(C)CC(=O)N[C@@H](CCc3cc(F)c(C(F)(F)F)c(F)c3)C(=O)N2C1 [PP1297, (2S,8S,12R,14S,20S,23S,27S,30S,36S,38Z)-20-cyclopentyl-8-[2-[3,5-difluoro-4-(trifluoromethyl)phenyl]ethyl]-12-ethoxy-4,19,22,26,27,32,35-heptamethyl-30-[(1S)-1-methylpropyl]-23-(pyrrolidine-1-carbonyl)-2-[[4-(trifluoromethyl)phenyl]methyl]spiro[1,4,7,10,16,19,22,26,29,32,35-undecazatricyclo[34.5.1.0^10,14]dotetracont-38-ene-17,1′-cyclobutane]-3,6,9,15,18,21,25,28,31,34,42-undecone] |  |  |  |  | A (a compound having 10 or more and less than 20 is denoted as A) | AA (a compound having 20 or more is denoted as AA)
